Assay results as given in US20260224716A1, “PTH ANALOGS FOR THE TREATMENT OF HYPOPARATHYROIDISM” (priority 2020, published 2026).
Each block holds one compound with its values, some of them ahead of it. *1 amine or outer side, *2 acyl side, *3 side chain or, on linkers, in order; H or OH if unused. Where a SMILES comes first, the peptide text is derived from it. Where no end group is shown, it is not given here. Side-chain parts run from the residue outwards. [ ]: non-standard residue; d: D form. The star is where a group is joined. C18 diacid = O=C(O)CCCCCCCCCCCCCCCCC(=O)*; γGlu = O=C(O)[C@H](CCC(=O)[*:2])N[*:1]; AEEA = NCCOCCOCC(=O)O; Aib = CC(C)(N)C(=O)O

Legend:
[1] = Rate of model dipeptide cleavage from hexapeptide in PBS (HPLC, LC-MS); type: physicochemical; settings: for t1/2: cleavage of dipeptide A-B from model hexapeptide in PBS, 37° C., unit not given or result in words; for half-life at 1 mg/ml: buffer
Protocol: The solution was incubated at 37° C.
The flow rate was 1 ml/min.

[2] = Cleavage half-life / conversion of PTH prodrugs in PBS pH 7.4, 37° C. by LC-MS; type: physicochemical; settings: PBS buffer; dipeptide cleavage from PTH prodrug, PBS pH 7.4, 37° C.; read-out: Half life (converted)
Protocol: The resulting solution was incubated at 37° C. Aliquots were taken at designed time points and analyzed by LC-MS. […] Flow rate of 1 mL/min and a gradient of 10%-80% acetonitrile in water, with 0.1% trifluoroacetic acid over 10 min. […] The concentration of prodrug and drug were determined by their relative peak areas. The […] dissociation rate constant of the prodrug was determined by plotting the logarithm in the concentration of the prodrug at various time points.

PTH1 receptor = target: T1, PTH1 receptor (Homo sapiens, UniProt Q03431); test: Luciferase-based reporter gene assay for cAMP detection (HEK293 cells); type: cell-based; settings: for potency at the PTH receptor: luciferase reporter of cAMP production; for EC50: HEK293 cells, PTH1 receptor, cAMP-responsive luciferase, 5 hours, read-out: Potency EC50
T1 construct: expressed in transfected cells; host or cells: HEK293
T1 sequence (Q03431 27-593): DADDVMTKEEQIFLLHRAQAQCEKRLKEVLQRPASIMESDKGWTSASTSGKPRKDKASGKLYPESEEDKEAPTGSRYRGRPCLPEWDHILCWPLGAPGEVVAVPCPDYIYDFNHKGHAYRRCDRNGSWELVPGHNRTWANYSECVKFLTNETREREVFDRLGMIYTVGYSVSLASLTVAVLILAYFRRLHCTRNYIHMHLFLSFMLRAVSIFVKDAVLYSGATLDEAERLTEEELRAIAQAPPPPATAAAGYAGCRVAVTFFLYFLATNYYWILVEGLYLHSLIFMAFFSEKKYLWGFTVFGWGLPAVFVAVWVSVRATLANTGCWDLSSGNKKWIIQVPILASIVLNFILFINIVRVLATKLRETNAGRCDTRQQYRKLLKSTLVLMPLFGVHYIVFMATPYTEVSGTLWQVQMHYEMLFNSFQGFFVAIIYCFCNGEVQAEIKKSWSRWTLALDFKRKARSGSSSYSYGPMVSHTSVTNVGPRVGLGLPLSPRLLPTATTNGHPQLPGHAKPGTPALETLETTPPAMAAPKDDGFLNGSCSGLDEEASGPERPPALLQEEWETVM
Protocol: At the end of the incubation, 50 μL of Steady-Lite Plus (PerkinElmer, Waltham, MA) were added to each well. The plate was shaken briefly, incubated four minutes and light output was measured on an EnSpire Alpha Multi-mode Plate Reader (PerkinElmer, Waltham, MA).

Compound: 7 (SVSEIQLMHNLGKHLNSMERVEWLRKKLQDVH; listed as Homo sapiens) [compound 7]
t1/2 [1]: No cleavage

Compound: 11 (XXSVSEIQLMHNLGKHLNSMERVEWLRKKLQDVHNF; SITE 1 MISC_FEATURE - Xaa at position 1 is acylated dLys; SITE 2 MISC_FEATURE - Xaa at position 2 is N-methyl Gly; listed as Homo sapiens) [compound 11]
t1/2 [1]: No cleavage

Compound: 12 (SVSEIQLMHNLGKHLNSMERVEWLRKKLQDVHNFX; VARIANT 35 MISC_FEATURE - Xaa at position 35 is an acylated Lys; SITE 35 MISC_FEATURE - C-terminal carboxyl group replaced with an amide; listed as Homo sapiens) [compound 12]
t1/2 [1]: No cleavage

Compound: 13 (XXSVSEIQLMHNLGKHLNSMERVEWLRKKLQDVHNFX; SITE 1 MISC_FEATURE - Xaa at position 1 is acylated dLys; SITE 2 MISC_FEATURE - Xaa at position 2 is N-methyl Gly; SITE 37 MISC_FEATURE - Xaa at position 37 is an acylated Lys; SITE 37 MISC_FEATURE - C-terminal carboxyl group replaced with an amide; listed as Homo sapiens) [compound 13]
t1/2 [1]: No cleavage

Compound: CC[C@H](C)[C@H](NC(=O)[C@H](CCC(=O)O)NC(=O)[C@H](CO)NC(=O)[C@@H](NC(=O)[C@H](CO)NC(=O)CN(C)C(=O)[C@H](N)CCCCNC(=O)CC[C@H](NC(=O)CCCCCCCCCCCCCCCCC(=O)O)C(=O)O)C(C)C)C(=O)N[C@@H](CCC(N)=O)C(=O)N[C@@H](CC(C)C)C(=O)N[C@@H](CCSC)C(=O)N[C@@H](Cc1c[nH]cn1)C(=O)N[C@@H](CC(N)=O)C(=O)N[C@@H](CC(C)C)C(=O)NCC(=O)N[C@@H](CCCCN)C(=O)N[C@@H](Cc1c[nH]cn1)C(=O)N[C@@H](CC(C)C)C(=O)N[C@@H](CC(N)=O)C(=O)N[C@@H](CO)C(=O)N[C@@H](CCSC)C(=O)N[C@@H](CCC(=O)O)C(=O)N[C@@H](CCCNC(=N)N)C(=O)N[C@H](C(=O)N[C@@H](CCC(=O)O)C(=O)N[C@@H](Cc1c[nH]c2ccccc12)C(=O)N[C@@H](CC(C)C)C(=O)N[C@@H](CCCNC(=N)N)C(=O)N[C@@H](CCCCN)C(=O)N[C@@H](CCCCN)C(=O)N[C@@H](CC(C)C)C(=O)N[C@@H](CCC(N)=O)C(=O)N[C@@H](CC(=O)O)C(=O)N[C@H](C(=O)N[C@@H](Cc1c[nH]cn1)C(=O)N[C@@H](CC(N)=O)C(=O)N[C@@H](Cc1ccccc1)C(=O)O)C(C)C)C(C)C [SEQ ID NO: 45]
half-life [2]: 90 h
potency at the PTH receptor (PTH1 receptor; FIGS. 3A, 3B): decreases the potency
EC50 (PTH1 receptor): 45.5 nM

Compound: (dK)K(γE-COC16H32CO2H)GSVSEIQLMHNLGKHLNSMERVEWLRKKLQDVHNF [SEQ ID NO: 10, acylated dipeptide attached to PTH (1-34)]
potency at the PTH receptor (PTH1 receptor; FIGS. 3A, 3B): decreases the potency

The remaining lines, values ahead:

half-life [2]: 73 h
potency at the PTH receptor (PTH1 receptor; FIGS. 3A, 3B): low potency
Compound: CC[C@H](C)[C@H](NC(=O)[C@H](CCC(=O)O)NC(=O)[C@H](CO)NC(=O)[C@@H](NC(=O)[C@H](CO)NC(=O)CN(C)C(=O)[C@H](N)CCCCNC(=O)CC[C@H](NC(=O)CCCCCCCCCCCCCCCCC(=O)O)C(=O)O)C(C)C)C(=O)N[C@@H](CCC(N)=O)C(=O)N[C@@H](CC(C)C)C(=O)N[C@@H](CCSC)C(=O)N[C@@H](Cc1c[nH]cn1)C(=O)N[C@@H](CC(N)=O)C(=O)N[C@@H](CC(C)C)C(=O)NCC(=O)N[C@@H](CCCCN)C(=O)N[C@@H](Cc1c[nH]cn1)C(=O)N[C@@H](CC(C)C)C(=O)N[C@@H](CC(N)=O)C(=O)N[C@@H](CO)C(=O)N[C@@H](CCSC)C(=O)N[C@@H](CCC(=O)O)C(=O)N[C@@H](CCCNC(=N)N)C(=O)N[C@H](C(=O)N[C@@H](CCC(=O)O)C(=O)N[C@@H](Cc1c[nH]c2ccccc12)C(=O)N[C@@H](CC(C)C)C(=O)N[C@@H](CCCNC(=N)N)C(=O)N[C@@H](CCCCN)C(=O)N[C@@H](CCCCN)C(=O)N[C@@H](CC(C)C)C(=O)N[C@@H](CCC(N)=O)C(=O)N[C@@H](CC(=O)O)C(=O)N[C@H](C(=O)N[C@@H](Cc1c[nH]cn1)C(=O)N[C@@H](CC(N)=O)C(=O)N[C@@H](Cc1ccccc1)C(=O)N[C@@H](CCCCNC(=O)CC[C@H](NC(=O)CCCCCCCCCCCCCCCCC(=O)O)C(=O)O)C(N)=O)C(C)C)C(C)C [SEQ ID NO: 58]

potency at the PTH receptor (PTH1 receptor; FIGS. 3A, 3B): decreases the potency
EC50 (PTH1 receptor): 45.5 nM
Compound: CC[C@H](C)[C@H](NC(=O)[C@H](CCC(=O)O)NC(=O)[C@H](CO)NC(=O)[C@@H](NC(=O)[C@H](CO)NC(=O)CN(C)C(=O)[C@H](N)CCCCNC(=O)CC[C@H](NC(=O)CCCCCCCCCCCCCCCCC(=O)O)C(=O)O)C(C)C)C(=O)N[C@@H](CCC(N)=O)C(=O)N[C@@H](CC(C)C)C(=O)N[C@@H](CCSC)C(=O)N[C@@H](Cc1c[nH]cn1)C(=O)N[C@@H](CC(N)=O)C(=O)N[C@@H](CC(C)C)C(=O)NCC(=O)N[C@@H](CCCCN)C(=O)N[C@@H](Cc1c[nH]cn1)C(=O)N[C@@H](CC(C)C)C(=O)N[C@@H](CC(N)=O)C(=O)N[C@@H](CO)C(=O)N[C@@H](CCSC)C(=O)N[C@@H](CCC(=O)O)C(=O)N[C@@H](CCCNC(=N)N)C(=O)N[C@H](C(=O)N[C@@H](CCC(=O)O)C(=O)N[C@@H](Cc1c[nH]c2ccccc12)C(=O)N[C@@H](CC(C)C)C(=O)N[C@@H](CCCNC(=N)N)C(=O)N[C@@H](CCCCN)C(=O)N[C@@H](CCCCN)C(=O)N[C@@H](CC(C)C)C(=O)N[C@@H](CCC(N)=O)C(=O)N[C@@H](CC(=O)O)C(=O)N[C@H](C(=O)N[C@@H](Cc1c[nH]cn1)C(=O)N[C@@H](CCC(N)=O)C(=O)N[C@@H](Cc1ccccc1)C(=O)O)C(C)C)C(C)C [SEQ ID NO: 61]

half-life at 1 mg/ml [1]: 32 h
Compound: C[C@@H](O)[C@H](NC(=O)CNC(=O)[C@H](CCCNC(=N)N)NC(=O)[C@H](CO)NC(=O)[C@H](Cc1c[nH]cn1)NC(=O)[C@@H]1CCCN1C(=O)C(C)(C)N)C(=O)N[C@@H](Cc1ccccc1)C(N)=O [compound 14] (H-[Aib]PHSRGTF-NH2)

half-life at 1 mg/ml [1]: 20 h
Compound: C[C@@H](O)[C@H](NC(=O)CNC(=O)[C@H](CCCNC(=N)N)NC(=O)[C@H](CO)NC(=O)[C@H](Cc1c[nH]cn1)NC(=O)[C@H]1CCCN1C(=O)C(C)(C)N)C(=O)N[C@@H](Cc1ccccc1)C(N)=O [compound 15] (H-[Aib][dP]HSRGTF-NH2)

half-life at 1 mg/ml [1]: 16 h
Compound: C[C@@H](O)[C@H](NC(=O)CNC(=O)[C@H](CCCNC(=N)N)NC(=O)[C@H](CO)NC(=O)[C@@H](Cc1c[nH]cn1)NC(=O)[C@@H]1CCCN1C(=O)C(C)(C)N)C(=O)N[C@@H](Cc1ccccc1)C(N)=O [compound 16] (H-[Aib]P[dH]SRGTF-NH2)

reduction of in vitro potency by alanine substitution at position 8 (PTH1 receptor): ~100 fold
potency at the PTH receptor (PTH1 receptor; FIG. 4): decreases PTH activity
Compound: SVSEIQLAHNLGKHLNSMERVEWLRKKLQDVHK(γE-(miniPEG)2-γE-COC16H32CO2H)-OH (SVSEIQLAHNLGKHLNSMERVEWLRKKLQDVHK([γGlu-AEEA-AEEA-γGlu-C18 diacid])-OH; N-terminus assumed; SMILES CC[C@H](C)[C@H](NC(=O)[C@H](CCC(=O)O)NC(=O)[C@H](CO)NC(=O)[C@@H](NC(=O)[C@@H](N)CO)C(C)C)C(=O)N[C@@H](CCC(N)=O)C(=O)N[C@@H](CC(C)C)C(=O)N[C@@H](C)C(=O)N[C@@H](Cc1c[nH]cn1)C(=O)N[C@@H](CC(N)=O)C(=O)N[C@@H](CC(C)C)C(=O)NCC(=O)N[C@@H](CCCCN)C(=O)N[C@@H](Cc1c[nH]cn1)C(=O)N[C@@H](CC(C)C)C(=O)N[C@@H](CC(N)=O)C(=O)N[C@@H](CO)C(=O)N[C@@H](CCSC)C(=O)N[C@@H](CCC(=O)O)C(=O)N[C@@H](CCCNC(=N)N)C(=O)N[C@H](C(=O)N[C@@H](CCC(=O)O)C(=O)N[C@@H](Cc1c[nH]c2ccccc12)C(=O)N[C@@H](CC(C)C)C(=O)N[C@@H](CCCNC(=N)N)C(=O)N[C@@H](CCCCN)C(=O)N[C@@H](CCCCN)C(=O)N[C@@H](CC(C)C)C(=O)N[C@@H](CCC(N)=O)C(=O)N[C@@H](CC(=O)O)C(=O)N[C@H](C(=O)N[C@@H](Cc1c[nH]cn1)C(=O)N[C@@H](CCCCNC(=O)CC[C@H](NC(=O)COCCOCCNC(=O)COCCOCCNC(=O)CC[C@H](NC(=O)CCCCCCCCCCCCCCCCC(=O)O)C(=O)O)C(=O)O)C(=O)O)C(C)C)C(C)C; listed as Homo sapiens) [SEQ ID NO: 93, PTH(1-33), A8, K33(γE-2xOEG-γE-diacidC18)]

potency at the PTH receptor (PTH1 receptor; FIG. 4): decreases the potency
Compound: k(N-Me)GSVSEIQLMHNLGKHLNSMERVEWLRKKLQDVHK(γE-(miniPEG)2-γE-COC16H32CO2H)-OH [SEQ ID NO: 80]
